Entries after “also recorded” stand apart in the source; their conditions may differ.
Key:
ADSC spheroids = assay: Immunofluorescence / confocal microscopy of chondrogenic proteins in ADSC spheroids; assay type: cell-based, human; details: ADSC spheroids, 7 days
Protocol: Both side views (observed in the x and z plane) and bottom views (observed in the […]) of the images are provided. The scale bar is set at 500 μm.
(§1) ADSCs were treated with CXCL14-P, CXCL14-P1, or CXCL14-P2, respectively, at a concentration of 10 ng for 24 hours, after which the medium was replaced with fresh peptide-free medium. On day 7, total RNA was extracted, and real-time PCR analysis was performed to assess the expression levels of key chondrogenic markers, including ACAN, COL2A1, SOX9, and COMP. Gene expression levels were quantified using a LightCycler system (Roche Applied Science), with fold changes calculated relative to untreated control ADSCs. […] Immunofluorescence staining was performed to detect Collagen Type II, SOX9, COMP, and nuclei (Hoechst 33342) in 3D ADSC spheroids (middle panel).
(FIG. 3). […] Moreover, fluorescence confocal microscopy was employed to detect protein patterns and confirm the levels of SOX9, type II collagen, and aggrecan proteins in ADSC spheroids. […] Finally, to investigate whether the CXCR4 receptor of CXCL12/CXCL14 confers chondrogenic signaling during chondrogenesis, we treated ADSCs with a CXCR4 agonist for 7 days.
Extracellular vesicles (EVs) derived from MSCs hold significant potential for repairing damaged tissues. In this study, we explored whether EVs from ADSCs could effectively enhance chondrogenesis and promote cartilage repair. Immunofluorescence staining was used to assess protein levels of Collagen Type II (green), SOX9 (red), COMP (indigo), and Hoechst 33342 (gray) in 3D ADSC spheroids treated with MSC-EVs derived from CXCL14 peptide-primed ADSCs (CXCL14-P-MSC-EVs) at various time points. […] To further explore the cartilage repair functions of EVs from CXCL14-P-treated ADSCs and the encapsulation of the transcription factor SOX9 within MSCs and purified EVs, we performed in vivo studies.

clinical-grade ADSCs [1] = assay: Real-time PCR of chondrogenic genes in ADSCs; assay type: cell-based, human; details: for expression of chondrogenic genes (SOX9, COL2A1, COMP, ACAN, ITGB1, CXCL14, CXCR4): alanine-substituted variants, 10 ng one-day treatment, day 7, relative to untreated control ADSCs
Protocol: Real-time PCR analysis was conducted on day 7 for CXCL12/CXCL14 peptides treated ADSCs, evaluating the expression of COMP, SOX9, COL2A1, ACAN, ITGB1, and SOSTDC1 genes. Cells were harvested, and RNA extraction was performed using a LightCycler® (Roche Applied Science). The fold change in gene expression on the y-axis was calculated relative to the same gene expression in untreated chondrocytes. Statistical analysis was conducted using one-way ANOVA. Significance levels are denoted as follows: * p<0.05, ** p<0.01, *** p<0.001, and **** p<0.0001 for comparisons between PBS treatments and the untreated group.
Real-time PCR analysis was performed on day 7 for ADSCs treated with CXCR4 agonists, assessing the expression of COMP, SOX9, COL2A1, ACAN, ITGB1, CXCL14, and SOSTIC1 genes. Cellular harvest, RNA extraction, and gene expression quantification were conducted using a LightCycler® (Roche Applied Science). The fold change in gene expression on the y-axis was calculated relative to the same gene expression in untreated chondrocytes. Statistical analysis was executed through one-way ANOVA. Significance levels are represented as follows: * p<0.05, ** p<0.01, *** p<0.001, and **** p<0.0001, indicating the significance of comparisons between PBS treatments and the untreated group.
(§2) Alcian blue staining was used to assess the chondrogenic differentiation of ADSC pellets. […] Treatment with CXCL14-PM1, CXCL14-PM2, CXCL14-PM3, and CXCR4-PM1 was sufficient to enhance the expression of chondrogenic genes in ADSCs. On day 7, real-time PCR was performed to analyze the expression of key chondrogenic markers, including SOX9, COL2A1, COMP, ACAN, ITGB1, CXCL14, and CXCR4, in ADSCs treated with these modified peptides. ADSCs were exposed to distinct peptide modifications derived from CXCL12, CXCL14, and CXCR4 at a concentration of 10 ng for a one-day treatment, after which the medium was replaced with fresh peptide-free medium. At the end of the treatment period, RNA was extracted to evaluate the expression levels of chondrogenesis-related cytokine genes. Gene expression quantification was performed using a LightCycler system (Roche Applied Science), and fold changes were calculated relative to untreated control ADSCs. […] FIG. 16(D) provides a summary of the results for alanine substitution with positively or negatively charged amino acids in CXCL12, CXCL14, and CXCR4 peptides.
as §1, with “panel). […]” for “panel).”
Human IPFP-MSCs and ADSCs were expanded in Dulbecco's Modified Eagle's Medium (DMEM, Gibco, cat. no 2145484) with 10% FBS under a 37° C., 5% CO2 atmosphere. MSCs collected and cell extractions were determined gene expression levels of cytokines and chondrogenic markers using a LightCycler® (Roche Applied Science). The fold change in gene expression on the y-axis was calculated based on untreated cell gene expression.

clinical-grade ADSCs [2] = assay: Alcian blue staining of chondrogenic pellets (GAG), ADSCs; assay type: cell-based, human; details: for GAG deposition (Alcian blue): day 7, CXCL14 variants vs CXCL14-P, CXCR4-PM1 vs control
Protocol: The chondrogenic differentiation of pellets containing clinical-grade ADSCs was assessed through Alcian blue staining.
The chondrogenic differentiation of pellets containing clinical-grade ADSCs was evaluated using Alcian blue staining.
as §2
To assess differentiation capacity, single-cell suspensions from cultured IPFP-MSCs and ADSCs were cultivated in chondrogenic medium. Alcian Blue staining was performed on day 7 to evaluate chondrogenic differentiation. The chondrogenic differentiation test was measured gene expressions of ACAN, COL2A1, SOX9, COMP, ITGB1, CXCL14 and SOSTDC1.

UC-MSCs [3] = assay: Alcian blue staining of chondrogenic pellets (GAG), UC-MSCs; assay type: cell-based; details: in the presence of TGF-beta
Excerpt: (§3) FIG. 13A provides flowchart illustrating the protocol for peptide treatment and sample collection. […] TGF-beta influenced the expression of chondrogenic genes, including ITGB1 and COMP. […] Treatment with CXCL14/CXCL12 peptides increased GAG content during chondrogenesis in the presence of TGF-beta.
(§4) To further validate the role of CXCL14-P and CXCL12-P in regulating chondrogenesis, we compared their effects on another MSC source, umbilical cord-derived mesenchymal stem cells (UC-MSCs). It is important to note that the chondrogenic induction medium contained TGF-β. During chondrogenesis, we observed that the chondrogenic patterns in UC-MSCs were lower than those in ADSCs (FIG. 12). Subsequently, we assessed the chondrogenic potential of UC-MSCs following stimulation with CXCL14-P and CXCL12-P (FIG. 13A). […] Although the expression of chondrogenic genes (FIG. 13B) and GAG content (FIG. 13C) in UC-MSCs was not as pronounced as in ADSCs, the findings confirm that CXCL14-P and CXCL12-P can robustly stimulate chondrogenesis across different MSC sources.

ADSCs = assay: Cellular uptake of fluorescently labeled peptides by fluorescence microscopy; assay type: cell-based, human; details: 10 ng FITC-conjugated peptide, 37° C. for one day, observed days 1, 3, 7
Protocol: Cell-penetrating properties of CXCL14-P and CXCL12-P peptides in ADSCs were analyzed. ADSCs were incubated with 10 ng of FITC-conjugated peptides at 37° C. for one day, followed by refreshing the chondrogenic medium. Peptide internalization was evaluated through fluorescence microscopy on days 1, 3, and 7.
We further explored whether peptides derived from CXCL14 and CXCL12 have the capacity to induce chondrogenesis in MSCs from different sources. To assess their potential, ADSCs were utilized in the study to evaluate the chondrogenic capacity of CXCL14-P and CXCL12-P on day 7 (FIG. 10A). […] FIG. 11 illustrates the cell-penetrating properties of CXCL14-P and CXCL12-P peptides in ADSCs, analyzed at different time points. ADSCs were incubated with FITC-conjugated peptides for one day, after which the chondrogenic medium was refreshed. […] Collectively, these observations indicate that CXCL14-P and CXCL12-P have the ability to stimulate chondrogenesis and further amplify the effects of TGF-β during the chondrogenic process.

UC-MSCs [4] = assay: Real-time PCR of chondrogenic genes in UC-MSCs; assay type: cell-based; details: day 7 of peptide treatment
Excerpt: as §3, §4

CXCL12: C-X-C motif chemokine 12, also known as stromal cell-derived factor 1 (SDF-1)
expression of SOX9, type II collagen, and aggrecan (ADSC spheroids): notably induced

ITTASVSAYAGQEH [CXCL14-PM1]
expression of chondrogenic genes (SOX9, COL2A1, COMP, ACAN, ITGB1, CXCL14, CXCR4) (clinical-grade ADSCs [1]): significantly enhance | GAG deposition (Alcian blue) (clinical-grade ADSCs [2]): increased GAG deposition; also recorded: enhance GAG contents

ITTKSVSRYRGQAH [CXCL14-PM2]
expression of chondrogenic genes (SOX9, COL2A1, COMP, ACAN, ITGB1, CXCL14, CXCR4) (clinical-grade ADSCs [1]): significantly enhance | GAG deposition (Alcian blue) (clinical-grade ADSCs [2]): increased GAG deposition; also recorded: enhance GAG contents

RANVKHLKILN [CXCL12-P]
GAG content (Alcian blue) (UC-MSCs [3]): increased | expression of chondrogenic genes (COMP, SOX9, COL2A1, ACAN, ITGB1, SOSTDC1) (clinical-grade ADSCs [1]; day 7, peptides compared to CXCL12/CXCL14 proteins, listed as CXCL12 peptide): significantly upregulated; also recorded: greater ability | expression of chondrogenic genes (COMP, SOX9, COL2A1, ACAN, ITGB1) (clinical-grade ADSCs [1]; day 7 of treatment with peptide): significantly upregulated | chondrogenic genes (clinical-grade ADSCs [1]; in the absence of TGF-β): evident | expression of chondrogenic genes ITGB1 and COMP (clinical-grade ADSCs [1]; in the presence of TGF-β, day 7): significantly enhanced | peptide internalization (cell penetration) (ADSCs): remain detectable up to day 7 | GAG content (Alcian blue) (clinical-grade ADSCs [2]; in the absence of TGF-β): evident | GAG content (Alcian blue) (clinical-grade ADSCs [2]; in the presence of TGF-beta): significantly increased | GAG content (Alcian blue) (clinical-grade ADSCs [2]; peptides compared to CXCL14/CXCL12 proteins, listed as CXCL12 peptide): significantly higher; also recorded: greater ability | chondrogenic gene expression (COMP, SOX9, COL2A1, ACAN, ITGB1) (UC-MSCs [4]): significantly upregulated

AANVAHLAILN [CXCL12-PM1]
expression of chondrogenic marker genes, variant vs unmodified peptide (clinical-grade ADSCs [1]; CXCL12-P vs CXCL12-PM1, day 7): no significant changes | expression of chondrogenic genes (SOX9, COL2A1, COMP, ACAN, ITGB1, CXCL14, CXCR4) (clinical-grade ADSCs [1]): significantly enhance

ITTKSVSRYRGDEH [CXCL14-PM3]
expression of chondrogenic genes (SOX9, COL2A1, COMP, ACAN, ITGB1, CXCL14, CXCR4) (clinical-grade ADSCs [1]): significantly enhance | GAG deposition (Alcian blue) (clinical-grade ADSCs [2]): increased GAG deposition; also recorded: did not significantly alter GAG contents

MGYGAALASMTDAYAL (MGYQAALASMTDAYAL) [CXCR4-PM1]
expression of chondrogenic genes (SOX9, COL2A1, COMP, ACAN, ITGB1, CXCL14, CXCR4) (clinical-grade ADSCs [1]): significantly enhance | GAG deposition (Alcian blue) (clinical-grade ADSCs [2]): increased GAG deposition; also recorded: significantly enhanced
